Data reported in patent publication US10227344B2, “CK2 inhibitors, compositions and methods thereof” (Polaris Pharmaceuticals, Inc., priority 2016, dated 2019).

How the values were obtained:
Format in all cases: cell-based
MDA-MB-231 = experiment: Cancer cell panel, cell viability (resazurin): Breast, MDA-MB-231; conditions: MDA-MB-231 (Breast), 72 hours; labelled drug combined with Example 3
ZR-75-1 = experiment: Cancer cell panel, cell viability (resazurin): Breast, ZR-75-1; conditions: ZR-75-1 (Breast), 72 hours; labelled drug combined with Example 3
SKOV-3 = experiment: Cancer cell panel, cell viability (resazurin): Ovarian, SKOV-3; conditions: SKOV-3 (Ovarian), 72 hours; labelled drug combined with Example 3
H2122 = experiment: Cancer cell panel, cell viability (resazurin): NSCLC, H2122; conditions: 72 hours, labelled drug combined with Example 3
WM-115 = experiment: Cancer cell panel, cell viability (resazurin): Melanoma, WM-115; conditions: WM-115 (Melanoma), 72 hours; labelled drug combined with Example 3
DLD-1 = experiment: Cancer cell panel, cell viability (resazurin): Colon, DLD-1; conditions: DLD-1 (Colon), 72 hours; labelled drug combined with Example 3
Caov-3 = experiment: Cancer cell panel, cell viability (resazurin): Ovarian, Caov-3; conditions: Caov-3 (Ovarian), 72 hours; labelled drug combined with Example 3
SK-MEL-3 = experiment: Cancer cell panel, cell viability (resazurin): Melanoma, SK-MEL-3; conditions: SK-MEL-3 (Melanoma), 72 hours; labelled drug combined with Example 3
Mia-Paca-2 = experiment: Cancer cell panel, cell viability (resazurin): Pancreatic, Mia-Paca-2; conditions: Mia-Paca-2 (Pancreatic), 72 hours; labelled drug combined with Example 3
MDA-MB-157 = experiment: Cancer cell panel, cell viability (resazurin): Breast, MDA-MB-157; conditions: MDA-MB-157 (Breast), 72 hours; labelled drug combined with Example 3
K562 = experiment: Cancer cell panel, cell viability (resazurin): Leukemia, K562; conditions: 72 hours, labelled drug combined with Example 3
PC3 = experiment: Cancer cell panel, cell viability (resazurin): Prostate, PC3; conditions: 72 hours, labelled drug combined with Example 3
EOL-1 = experiment: Cancer cell panel, cell viability (resazurin): Leukemia, EOL-1; conditions: EOL-1 (Leukemia), 72 hours; labelled drug combined with Example 3
ACHN = experiment: Cancer cell panel, cell viability (resazurin): Renal, ACHN; conditions: 72 hours, labelled drug combined with Example 3
LoVo = experiment: Cancer cell panel, cell viability (resazurin): Colon, LoVo; conditions: 72 hours, labelled drug combined with Example 3
BxPC3 = experiment: Cancer cell panel, cell viability (resazurin): Pancreatic, BxPC3; conditions: 72 hours, labelled drug combined with Example 3
H460 = experiment: Cancer cell panel, cell viability (resazurin): NSCLC, H460; conditions: 72 hours, labelled drug combined with Example 3
T47D = experiment: Cancer cell panel, cell viability (resazurin): Breast, T47D; conditions: 72 hours, labelled drug combined with Example 3
SkBr-3 = experiment: Cancer cell panel, cell viability (resazurin): Breast, SkBr-3; conditions: SkBr-3 (Breast), 72 hours; labelled drug combined with Example 3
Panc-1 = experiment: Cancer cell panel, cell viability (resazurin): Pancreatic, Panc-1; conditions: Panc-1 (Pancreatic), 72 hours; labelled drug combined with Example 3
SK-MEL-24 = experiment: Cancer cell panel, cell viability (resazurin): Melanoma, SK-MEL-24; conditions: SK-MEL-24 (Melanoma), 72 hours; labelled drug combined with Example 3
H1299 = experiment: Cancer cell panel, cell viability (resazurin): NSCLC, H1299; conditions: 72 hours, labelled drug combined with Example 3
BT-474 = experiment: Cancer cell panel, cell viability (resazurin): Breast, BT-474; conditions: BT-474 (Breast), 72 hours; labelled drug combined with Example 3
H1975 = experiment: Cancer cell panel, cell viability (resazurin): NSCLC, H1975; conditions: 72 hours, labelled drug combined with Example 3
A2780 = experiment: Cancer cell panel, cell viability (resazurin): Ovarian, A2780; conditions: 72 hours, labelled drug combined with Example 3
H23 = experiment: Cancer cell panel, cell viability (resazurin): NSCLC, H23; conditions: 72 hours, labelled drug combined with Example 3
BT-20 = experiment: Cancer cell panel, cell viability (resazurin): Breast, BT-20; conditions: BT-20 (Breast), 72 hours; labelled drug combined with Example 3
HL60 = experiment: Cancer cell panel, cell viability (resazurin): Leukemia, HL60; conditions: 72 hours, labelled drug combined with Example 3
A375 = experiment: Cancer cell panel, cell viability (resazurin): Melanoma, A375; conditions: 72 hours, labelled drug combined with Example 3
Colo205 = experiment: Cancer cell panel, cell viability (resazurin): Colon, Colo205; conditions: 72 hours, labelled drug combined with Example 3
MOLT4 = experiment: Cancer cell panel, cell viability (resazurin): Leukemia, MOLT4; conditions: 72 hours, labelled drug combined with Example 3
Caki-1 = experiment: Cancer cell panel, cell viability (resazurin): Renal, Caki-1; conditions: Caki-1 (Renal), 72 hours; labelled drug combined with Example 3
Daudi = experiment: Cancer cell panel, cell viability (resazurin): Burkitt's Lymphoma, Daudi; conditions: 72 hours, labelled drug combined with Example 3
MDA-MB-453 = experiment: Cancer cell panel, cell viability (resazurin): Breast, MDA-MB-453; conditions: MDA-MB-453 (Breast), 72 hours; labelled drug combined with Example 3
Raji = experiment: Cancer cell panel, cell viability (resazurin): Burkitt's Lymphoma, Raji; conditions: 72 hours, labelled drug combined with Example 3
OVCAR-3 = experiment: Cancer cell panel, cell viability (resazurin): Ovarian, OVCAR-3; conditions: OVCAR-3 (Ovarian), 72 hours; labelled drug combined with Example 3
RPMI8226 = experiment: Cancer cell panel, cell viability (resazurin): multiple myeloma, RPMI8226; conditions: 72 hours, labelled drug combined with Example 3
HCT116 = experiment: Cancer cell panel, cell viability (resazurin): Colon, HCT116; conditions: 72 hours, labelled drug combined with Example 3

`COc1cccc2c1C(=O)c1c(O)c3c(c(O)c1C2=O)C[C@@](O)(C(=O)CO)C[C@@H]3O[C@H]1C[C@H](N)[C@H](O)[C@H](C)O1` [Doxorubicin, doxorubicin] was tested, and the “synergy, additivity or antagonism of the combination of Example 3 with the anti-cancer drug” value (“synergy, additivity or antagonism” for short) (MDA-MB-231) was “+ (Additive relative to each agent alone (CI = 0.9-1 by Bliss Independence Model and <0.9 by Highest Single Agent Model))”, the “synergy, additivity or antagonism” value (ZR-75-1) was “+ + (Slight synergy relative to each agent alone (CI = 0.75-0.9 by Bliss Independence Model))” and the “synergy, additivity or antagonism” value (SKOV-3) was “+ (Additive relative to each agent alone (CI = 0.9-1 by Bliss Independence Model and <0.9 by Highest Single Agent Model))”. The “synergy, additivity or antagonism” value (H2122) was “+ + (Slight synergy relative to each agent alone (CI = 0.75-0.9 by Bliss Independence Model))”, the “synergy, additivity or antagonism” value (WM-115) was “+ + + (Synergy relative to each agent alone (CI = 0.4-0.74 by Bliss Independence Model))” and the “synergy, additivity or antagonism” value (DLD-1) was “+ + (Slight synergy relative to each agent alone (CI = 0.75-0.9 by Bliss Independence Model))”. For the same compound, the “synergy, additivity or antagonism” value (Caov-3) was “+ (Additive relative to each agent alone (CI = 0.9-1 by Bliss Independence Model and <0.9 by Highest Single Agent Model))”, the “synergy, additivity or antagonism” value (SK-MEL-3) was “+ + (Slight synergy relative to each agent alone (CI = 0.75-0.9 by Bliss Independence Model))” and the “synergy, additivity or antagonism” value (Mia-Paca-2) was “+ (Additive relative to each agent alone (CI = 0.9-1 by Bliss Independence Model and <0.9 by Highest Single Agent Model))”. The “synergy, additivity or antagonism” value (MDA-MB-157) was “+ + + (Synergy relative to each agent alone (CI = 0.4-0.74 by Bliss Independence Model))”, the “synergy, additivity or antagonism” value (K562) was “+ (Additive relative to each agent alone (CI = 0.9-1 by Bliss Independence Model and <0.9 by Highest Single Agent Model))” and the “synergy, additivity or antagonism” value (PC3) was “+ (Additive relative to each agent alone (CI = 0.9-1 by Bliss Independence Model and <0.9 by Highest Single Agent Model))”. For the same compound, the “synergy, additivity or antagonism” value (EOL-1) was “+ + (Slight synergy relative to each agent alone (CI = 0.75-0.9 by Bliss Independence Model))”, the “synergy, additivity or antagonism” value (ACHN) was “+ (Additive relative to each agent alone (CI = 0.9-1 by Bliss Independence Model and <0.9 by Highest Single Agent Model))” and the “synergy, additivity or antagonism” value (LoVo) was “+ (Additive relative to each agent alone (CI = 0.9-1 by Bliss Independence Model and <0.9 by Highest Single Agent Model))”. The “synergy, additivity or antagonism” value (BxPC3) was “+ + (Slight synergy relative to each agent alone (CI = 0.75-0.9 by Bliss Independence Model))”, the “synergy, additivity or antagonism” value (H460) was “+ + (Slight synergy relative to each agent alone (CI = 0.75-0.9 by Bliss Independence Model))” and the “synergy, additivity or antagonism” value (T47D) was “+ (Additive relative to each agent alone (CI = 0.9-1 by Bliss Independence Model and <0.9 by Highest Single Agent Model))”. The “synergy, additivity or antagonism” value (SkBr-3) was “+ (Additive relative to each agent alone (CI = 0.9-1 by Bliss Independence Model and <0.9 by Highest Single Agent Model))”, the “synergy, additivity or antagonism” value (Panc-1) was “+ + (Slight synergy relative to each agent alone (CI = 0.75-0.9 by Bliss Independence Model))” and the “synergy, additivity or antagonism” value (SK-MEL-24) was “+ (Additive relative to each agent alone (CI = 0.9-1 by Bliss Independence Model and <0.9 by Highest Single Agent Model))”. For the same compound, the “synergy, additivity or antagonism” value (H1299) was “+ (Additive relative to each agent alone (CI = 0.9-1 by Bliss Independence Model and <0.9 by Highest Single Agent Model))”, the “synergy, additivity or antagonism” value (BT-474) was “+ + (Slight synergy relative to each agent alone (CI = 0.75-0.9 by Bliss Independence Model))” and the “synergy, additivity or antagonism” value (H1975) was “+ (Additive relative to each agent alone (CI = 0.9-1 by Bliss Independence Model and <0.9 by Highest Single Agent Model))”. For the same compound, the “synergy, additivity or antagonism” value (A2780) was “+ (Additive relative to each agent alone (CI = 0.9-1 by Bliss Independence Model and <0.9 by Highest Single Agent Model))”, the “synergy, additivity or antagonism” value (H23) was “+ + (Slight synergy relative to each agent alone (CI = 0.75-0.9 by Bliss Independence Model))” and the “synergy, additivity or antagonism” value (BT-20) was “+ + (Slight synergy relative to each agent alone (CI = 0.75-0.9 by Bliss Independence Model))”. The “synergy, additivity or antagonism” value (HL60) was “+ (Additive relative to each agent alone (CI = 0.9-1 by Bliss Independence Model and <0.9 by Highest Single Agent Model))”, the “synergy, additivity or antagonism” value (A375) was “+ (Additive relative to each agent alone (CI = 0.9-1 by Bliss Independence Model and <0.9 by Highest Single Agent Model))” and the “synergy, additivity or antagonism” value (Colo205) was “+ + (Slight synergy relative to each agent alone (CI = 0.75-0.9 by Bliss Independence Model))”. The “synergy, additivity or antagonism” value (MOLT4) was “+ + + (Synergy relative to each agent alone (CI = 0.4-0.74 by Bliss Independence Model))”, the “synergy, additivity or antagonism” value (Caki-1) was “+ (Additive relative to each agent alone (CI = 0.9-1 by Bliss Independence Model and <0.9 by Highest Single Agent Model))” and the “synergy, additivity or antagonism” value (Daudi) was “+ (Additive relative to each agent alone (CI = 0.9-1 by Bliss Independence Model and <0.9 by Highest Single Agent Model))”. For the same compound, the “synergy, additivity or antagonism” value (MDA-MB-453) was “+ + + (Synergy relative to each agent alone (CI = 0.4-0.74 by Bliss Independence Model))”, the “synergy, additivity or antagonism” value (Raji) was “+ + (Slight synergy relative to each agent alone (CI = 0.75-0.9 by Bliss Independence Model))” and the “synergy, additivity or antagonism” value (OVCAR-3) was “+ + (Slight synergy relative to each agent alone (CI = 0.75-0.9 by Bliss Independence Model))”. The “synergy, additivity or antagonism” value (RPMI8226) was “+ + + (Synergy relative to each agent alone (CI = 0.4-0.74 by Bliss Independence Model))” and the “synergy, additivity or antagonism” value (HCT116) was “+ + (Slight synergy relative to each agent alone (CI = 0.75-0.9 by Bliss Independence Model))”.
